Assay results published in ChEMBL document CHEMBL3885861, “Open TG-GATES”.

Species on record: Rattus norvegicus
Assay: Open TG-GATES - Regimen: Single
Assay type: toxicity, organism-based, Sprague-Dawley
Set-up: regimen Single, gender Male, age 6 weeks
Settings: in vivo, po, 30 mg/kg, route gavage, dose level Low; for APTT / Bas / Eos / Fbg / Hb / Ht / Lym / MCH / MCHC / MCV / Mono / Neu / PT / Plat / RBC / Ret / WBC: tissue Blood; for KIDNEY_L / KIDNEY_R / KIDNEY_TOTAL: tissue Kidney; for LIVER: tissue Liver; for A/G / ALP / ALT / AST / BUN / CRE / Ca / Cl / DBIL / GLC / IP / K / LDH / Na / PL / RALB / TBIL / TC / TG / TP / gamma-GTP: tissue Plasma

Compound: Nc1ccc(Cc2ccc(N)cc2)cc1
- TERMINAL_BW (3 h): 209.5 g
- APTT (3 h): 14.3 s
- Bas (3 h): 0%
- Eos (3 h): 0.6%
- Fbg (3 h): 262.8 mg/dL
- Hb (3 h): 13 g/dL
- Ht (3 h): 38%
- Lym (3 h): 74.2%
- MCH (3 h): 21 pg
- MCHC (3 h): 34.1%
- MCV (3 h): 61.4 fL
- Mono (3 h): 3.6%
- Neu (3 h): 20.8%
- PT (3 h): 12 s
- Plat (3 h): 147.2 x10_4/uL
- RBC (3 h): 619 x10_4/ul
- Ret (3 h): 7.8%
- WBC (3 h): 100.2 x10_2/uL
- KIDNEY_L (3 h): 0.9 g
- KIDNEY_R (3 h): 0.9 g
- KIDNEY_TOTAL (3 h): 1.8 g
- LIVER (3 h): 8.8 g
- A/G (3 h): 0.8
- ALP (3 h): 1545.4 IU/L
- ALT (3 h): 47.4 IU/L
- AST (3 h): 81.6 IU/L
- BUN (3 h): 11 mg/dL
- CRE (3 h): 0.2 mg/dL
- Ca (3 h): 10.9 mg/dL
- Cl (3 h): 105 meq/L
- DBIL (3 h): 0.022 mg/dL
- GLC (3 h): 172 mg/dL
- IP (3 h): 9.1 mg/dL
- K (3 h): 3.8 meq/L
- LDH (3 h): 65.4 IU/L
- Na (3 h): 141.2 meq/L
- PL (3 h): 138.6 mg/dL
- RALB (3 h): 2.6 g/dL
- TBIL (3 h): 0.062 mg/dL
- TC (3 h): 73 mg/dL
- TG (3 h): 79.4 mg/dL
- TP (3 h): 5.6 g/dL
- gamma-GTP (3 h): 1.4 IU/L
- TERMINAL_BW (6 h): 206.3 g
- APTT (6 h): 14.7 s
- Bas (6 h): 0%
- Eos (6 h): 0.6%
- Fbg (6 h): 274.6 mg/dL
- Hb (6 h): 13.2 g/dL
- Ht (6 h): 38.9%
- Lym (6 h): 70.8%
- MCH (6 h): 21.3 pg
- MCHC (6 h): 34%
- MCV (6 h): 62.7 fL
- Mono (6 h): 2.2%
- Neu (6 h): 25.2%
- PT (6 h): 11.5 s
- Plat (6 h): 141.7 x10_4/uL
- RBC (6 h): 621.2 x10_4/ul
- Ret (6 h): 8.2%
- WBC (6 h): 77.7 x10_2/uL
- KIDNEY_L (6 h): 0.9 g
- KIDNEY_R (6 h): 0.9 g
- KIDNEY_TOTAL (6 h): 1.8 g
- LIVER (6 h): 8.6 g
- A/G (6 h): 0.8
- ALP (6 h): 1547 IU/L
- ALT (6 h): 37.2 IU/L
- AST (6 h): 74.2 IU/L
- BUN (6 h): 7.4 mg/dL
- CRE (6 h): 0.2 mg/dL
- Ca (6 h): 10.7 mg/dL
- Cl (6 h): 107.2 meq/L
- DBIL (6 h): 0.022 mg/dL
- GLC (6 h): 167 mg/dL
- IP (6 h): 9.6 mg/dL
- K (6 h): 4 meq/L
- LDH (6 h): 52.4 IU/L
- Na (6 h): 141.8 meq/L
- PL (6 h): 146.2 mg/dL
- RALB (6 h): 2.5 g/dL
- TBIL (6 h): 0.074 mg/dL
- TC (6 h): 81 mg/dL
- TG (6 h): 61.2 mg/dL
- TP (6 h): 5.6 g/dL
- gamma-GTP (6 h): 1.2 IU/L
- TERMINAL_BW (9 h): 205 g
- APTT (9 h): 13.5 s
- Bas (9 h): 0%
- Eos (9 h): 0.8%
- Fbg (9 h): 260 mg/dL
- Hb (9 h): 12.8 g/dL
- Ht (9 h): 37.2%
- Lym (9 h): 74%
- MCH (9 h): 21.3 pg
- MCHC (9 h): 34.2%
- MCV (9 h): 62.1 fL
- Mono (9 h): 2.4%
- Neu (9 h): 22%
- PT (9 h): 11.8 s
- Plat (9 h): 138.8 x10_4/uL
- RBC (9 h): 600 x10_4/ul
- Ret (9 h): 8.6%
- WBC (9 h): 106 x10_2/uL
- KIDNEY_L (9 h): 0.9 g
- KIDNEY_R (9 h): 0.9 g
- KIDNEY_TOTAL (9 h): 1.8 g
- LIVER (9 h): 7.6 g
- A/G (9 h): 0.8
- ALP (9 h): 1400.6 IU/L
- ALT (9 h): 34.4 IU/L
- AST (9 h): 75.4 IU/L
- BUN (9 h): 8.8 mg/dL
- CRE (9 h): 0.2 mg/dL
- Ca (9 h): 10.5 mg/dL
- Cl (9 h): 106.8 meq/L
- DBIL (9 h): 0.03 mg/dL
- GLC (9 h): 167.6 mg/dL
- IP (9 h): 11.3 mg/dL
- K (9 h): 4.1 meq/L
- LDH (9 h): 53.8 IU/L
- Na (9 h): 143.4 meq/L
- PL (9 h): 134.6 mg/dL
- RALB (9 h): 2.5 g/dL
- TBIL (9 h): 0.094 mg/dL
- TC (9 h): 76 mg/dL
- TG (9 h): 50.2 mg/dL
- TP (9 h): 5.4 g/dL
- gamma-GTP (9 h): 1.6 IU/L
- TERMINAL_BW (24 h): 219.9 g
- APTT (24 h): 13.8 s
- Bas (24 h): 0%
- Eos (24 h): 1%
- Fbg (24 h): 278.6 mg/dL
- Hb (24 h): 13.4 g/dL
- Ht (24 h): 38.6%
- Lym (24 h): 72.2%
- MCH (24 h): 20.9 pg
- MCHC (24 h): 34.7%
- MCV (24 h): 60.2 fL
- Mono (24 h): 2.6%
- Neu (24 h): 23.6%
- PT (24 h): 11.6 s
- Plat (24 h): 137.1 x10_4/uL
- RBC (24 h): 640.4 x10_4/ul
- Ret (24 h): 6.5%
- WBC (24 h): 93 x10_2/uL
- KIDNEY_L (24 h): 0.9 g
- KIDNEY_R (24 h): 1 g
- KIDNEY_TOTAL (24 h): 1.9 g
- LIVER (24 h): 10.1 g
- A/G (24 h): 0.9
- ALP (24 h): 1877.6 IU/L
- ALT (24 h): 44 IU/L
- AST (24 h): 82 IU/L
- BUN (24 h): 14.8 mg/dL
- CRE (24 h): 0.2 mg/dL
- Ca (24 h): 11.1 mg/dL
- Cl (24 h): 105.6 meq/L
- DBIL (24 h): 0.02 mg/dL
- GLC (24 h): 168.4 mg/dL
- IP (24 h): 8 mg/dL
- K (24 h): 4 meq/L
- LDH (24 h): 53.6 IU/L
- Na (24 h): 143.4 meq/L
- PL (24 h): 160.2 mg/dL
- RALB (24 h): 2.7 g/dL
- TBIL (24 h): 0.046 mg/dL
- TC (24 h): 92.8 mg/dL
- TG (24 h): 91.6 mg/dL
- TP (24 h): 5.7 g/dL
- gamma-GTP (24 h): 1 IU/L
